# Assay results from paper PMC6271742, “A Novel Phage-Library-Selected Peptide Inhibits Human TNF-α Binding to Its Receptors” (Molecules, 2014).
# Bridges are numbered along the chain shown (N, C = ends). Roman numbers before positions name the chains, in order. Where no end group is shown, it is not given here.
# Tests used:
# biotinylated hTNF-α = experiment: Phage ELISA of selected clones; format: binding, human; conditions: streptavidin-coated 96-well plates coated with 20 nM biotinylated hTNF-α; phage-displayed peptide
# Protocol: Random 12-mer peptide phage library Ph.D.™-12 (New England Biolabs, Ipswich, MA, USA) was incubated with biotinylated hTNF-α. 10^11 phage, diluted in PBS (137 mM NaCl, 2 mM KCl, 10 mM Na2HPO4, 2 mM KH2PO4, pH 7.4) containing 0.1% (v/v) Tween 20 (PBST) and 3% bovine albumin (BSA) and incubated with 50 nM biotinylated hTNF-α o/n at 4 °C, was added to 100 μL Dynabeads-M280 coupled with streptavidin (Invitrogen¸ Waltham, MA, USA), saturated with 5% BSA in PBST, for 15 min at room temperature. After washing 10 times with PBST, bound phages were eluted with 5 μM adalimumab for 60 min at room temperature. The amplified phages were titered and underwent two further rounds of biopanning as described above, except that the concentration of biotinylated hTNF-α was diminished (20 nM and 10 nM for the second and third rounds of panning, respectively) and washing was performed using 0.5% (v/v) Tween 20.
# In alternative to the selection described above we performed the following panning using SPR technology. Biotinylated hTNF-α was immobilized to the streptavidin (SA) sensor chip surface, obtaining final 2000 Resonance Units. […] For both pannings, the binding of selected clones to hTNF-α after the last round of panning was evaluated by phage ELISA in streptavidin-coated 96-well plates coated with 20 nM biotinylated hTNF-α.
# [1] = test system: homotrimeric form of hTNF-α; experiment: MALDI-TOF MS analysis of hTNF-α oligomer dissociation; format: biochemical, human; conditions: 5 min at room temperature, linear mode
# Protocol: To determine whether the anti-TNF-α peptide destabilized the oligomeric form of hTNF-α, we evaluated the distribution of monomeric, dimeric and trimeric hTNF-α by MS in the presence of increasing concentrations of anti-TNF-α peptide.
# The anti-TNF-α peptide was incubated in a 3-fold or 10-fold molar excess with respect with hTNF-α at room temperature for 5 min. The dissociation of hTNF-α was analysed by mass spectrometry using a sinapinic acid matrix (Sigma-Aldrich) and a protein standard II (mass range ~10,000–70,000 Da, Brucker Daltonics) in an ultrafleXtreme MALDI-TOF/TOF mass spectrometer (Bruker Daltonics) in linear mode.
# [2] = molecular target: T1, hTNF-α binding to adalimumab (Homo sapiens, UniProt P01375); experiment: SPR inhibition of hTNF-α binding to captured adalimumab; conditions: 25 µM peptide, 10 nM hTNF-α, adalimumab captured via Protein A on CM5 chip, read-out: inhibition of TNF-α binding to adalimumab
# T1 construct: peaks around 17,300, 34,700 and 52,100 Da, corresponding to monomeric, homodimeric and homotrimeric forms of hTNF-α; purchased Prospec
# Protocol: The anti-hTNF-α monoclonal antibody adalimumab was captured on a protein-A-coated sensor chip. 10 nM hTNF-α was injected over the immobilized antibody in the presence of different concentrations (25, 10 and 1 µM) of the tetra-branched anti-TNF-α peptide (Figure 3A).
# (§1) All the experiments were performed on a Biacore T100 instrument (GE Healthcare, Milan, Italy); materials were purchased from GE Healthcare unless otherwise specified. Adalimumab was a kind gift from Galeazzi, University of Siena. Biotinylated linear and tetra-branched TNF-peptides were immobilized on a SA sensor chip. Briefly, peptides diluted in HBS-EP+ were injected for 60 s at a flow rate of 10 µL/min, obtaining 300 and 700 RUs respectively. Different concentrations of hTNF-α, from 250 nM to 2 µM in HBS-EP+, were injected for 180 s at a flow rate of 75 µL/min onto immobilized peptides. Association and dissociation kinetic rate constants (kon and koff) and the equilibrium dissociation constant Kd were calculated using BIAevaluation 3.0 software. […] Adalimumab monoclonal antibody (1 µg/mL in HBS-EP+ for 45 s at a flow rate of 10 µL/min) was immobilized on a CM5 sensor chip previously coated with Protein A (6500 RUs). Competition experiments were carried out injecting 10 nM hTNF-α for 180 s at flow rate of 30 µL/min with various concentrations (1, 10 and 25 µM) of tetra-branched TNF-peptide. […]
# murine TNF-α = experiment: SPR specificity: binding of murine TNF-α to immobilized peptides; conditions: data not shown
# human TNF-α (hTNF-α) = molecular target: T2, human TNF-α (hTNF-α) (Homo sapiens, UniProt P01375); experiment: SPR binding of hTNF-α to immobilized biotinylated peptides (Biacore T100); conditions: hTNF-α 250 nM to 2 µM over immobilized peptide
# T2 construct: peaks around 17,300, 34,700 and 52,100 Da, corresponding to monomeric, homodimeric and homotrimeric forms of hTNF-α; purchased Prospec
# Protocol: hTNF-α was injected over linear and tetra-branched peptides previously immobilized on a Biacore T100 SA sensor chip. hTNF-α was flowed at concentrations ranging from 250 nM to 2 µM. To assess any non-specific binding, hTNF-α was also injected over an empty flow cell.
# as §1
# T1 sequence (P01375 77-233 limits assumed): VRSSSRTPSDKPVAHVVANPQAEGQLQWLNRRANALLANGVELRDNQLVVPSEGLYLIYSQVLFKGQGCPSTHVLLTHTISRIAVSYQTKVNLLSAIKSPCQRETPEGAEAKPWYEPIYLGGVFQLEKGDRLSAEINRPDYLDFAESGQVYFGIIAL
# T2 sequence (P01375 77-233 limits assumed): as above
substance,measurement,setting,value
HIHDDLLRYYGW,phage ELISA result for clones expressing the sequence (in words),biotinylated hTNF-α,positive
"I: HIHDDLLRYYGWKK-NH2 / II: HIHDDLLRYYGWK / III: HIHDDLLRYYGW / IV: HIHDDLLRYYGW (amide I:13-IV:C, I:14-II:C, II:13-III:C) [tetra-branched anti-TNF-α peptide]",homo-dimeric hTNF-α peak in MS (in words),[1]; tenfold molar excess of peptide,the homo-dimeric form also disappeared
same,homo-trimeric hTNF-α peak in MS (in words),[1]; threefold molar excess of peptide,The peak corresponding to the homo-trimeric form disappeared
same,inhibition at 25 µM,[2],~80%
"I: HIHDDLLRYYGWKK-NH2 / II: HIHDDLLRYYGWK / III: HIHDDLLRYYGW / IV: HIHDDLLRYYGW (amide I:13-IV:C, I:14-II:C, II:13-III:C; C-terminus assumed) [tetra-branched peptide]",binding for murine TNF-α (in words),murine TNF-α,did not show any binding for murine TNF-α
same,hTNF-α binding (in words),human TNF-α (hTNF-α),bound hTNF-α in a dose-dependent manner
